From patent US20090186835A1, “TREATMENT AND PROPHYLAXIS OF CANCER” (priority 2008, published 2009)
Where two headings read alike, the source gives them in different places.

What was measured:
[1] = system: human pancreatic carcinoma cells (HPAC); experiment: CytoTox 96 LDH release cytotoxicity assay on HPAC cells
Method: (§1) The pancreatic cancer cell line, human pancreatic carcinoma cells (HPAC), was obtained from American Tissue and Cell Culture and cultured in complete media according to American Tissue and Cell Culture guidelines in T-75-cm^2 flasks in a 37° C. incubator with 5% CO2. HPAC cells were grown in Dulbecco's modified Eagle's medium with Ham F-12, 5% fetal bovine serum, 5% penicillin/streptomycin, 0.002 mg/mL insulin, 0.005 mg/mL transferrin, 40 ng/mL hydrocortisone, and 10 ng/mL epidermal growth factor.
(§2) 1×10^4 HPAC cells were aliquoted into each well of a 96-well plate and served as target cells. They were plated in phenol red dye-free RPMI 1640 (HyClone, Logan, Utah) complete medium (1 mM L-glutamine, 100 U/mL penicillin, 100 μg/mL streptomycin, 5% heat-inactivated fetal bovine serum; Gibco-BRL, Grand Island, N.Y.) and incubated with either natural mixture or sophorolipid derivative in increasing concentrations (0, 50, 100, 150, 200 mg; 100 μL final volume) at 37° C. with 5% CO2 overnight.
(§3) Assays were carried out using a CytoTox 96 Non-Radioactive Cytotoxicity Assay (Promega, Woodshole, Mass.), in accordance with manufacturer's directions. This assay measures lactate dehydrogenase (LDH) release by target cells, after conversion of a tetrazolium salt into a formazan red product. Cytotoxicity as measured by LDH release is considered an effective measure of determining cellular necrosis. Sophorolipid mixtures or derivatives (0, 50, 100, 150, 200 mg) were added to 96-well tissue culture plates (Fisher Scientific, Springfield, N.J.) containing HPAC cells (100 μL final volume) and incubated at 37° C., 5% CO2, for 20 h. To establish maximum lysis, lysing solution (9% v/v Triton-X 100; 10 μL) was added to representative culture wells containing HPAC cells. After incubation, supernatant (50 μL) was transferred to a fresh 96-well plate. Chromogenic substrate solution (50 μL) was added to each well while the plates were incubated in the dark at RT for 30 min, after which stop solution (1M NaAc; 50 μL) was added to each well to stop the reaction.
(§4) Cytotoxicity as measured by LDH release was determined by spectrophotometry at 450 nm (Bio-Tek Instruments Inc., Winooski, Vt.). […] Data shown represent the mean of at least three experiments±SE and are expressed as percentage cytotoxicity. Background controls were corrected for and consisted of target cell spontaneous (HPACs in media) and target cell maximum (HPACs in media with 10 μL lysis solution). Target cell maximum was corrected for by a volume control (media with 10 μL lysis solution). Each experiment was corrected for by a sophorolipid control (sophorolipid in media). These controls were incubated on the same 96-well plate as experimental assays. Percent (%) cytotoxicity was calculated according to the general equation below:
(§5) Values for results were expressed as means±SE obtained from multiple determinations in three or more separate experiments. P values computed were two-tailed, and P<0.05 was considered statistically significant (Student's t-test, analysis of variance with Tukey post-hoc correction; SPSS version 10.0, Chicago, Ill.).

[2] = system: Human pancreatic carcinoma (HPAC) cells; experiment: Apoptosis (annexin) in HPAC cells; type: cell-based; details: 0.5-2.0 mg/ml, 24 hours
Method: The sophorolipid mixtures of the present invention have anti cancer properties, which were confirmed by experiment and observations. […] Controls consisted of cells treated with media or vehicle alone and sophorolipids treatment of peripheral blood mononuclear cells (PBMC). AS mediated toxicity was inversely proportional with dose (LSD—40.3% at 0.5 mg/ml, 3.4% at 2.0 mg/ml, AS 49% at 0.5 mg/ml, 0% at 2.0 mg/ml).

[3] = system: human pancreatic carcinoma cells (HPAC)
Method: as §1, §2, §3, §4, §5

CC(=O)OC[C@H]1O[C@H]2OC(C)CCCCCC/C=C\CCCCCCCC(=O)O[C@H]3[C@H](O)[C@@H](O)[C@H](O[C@@H]2[C@@H](O)[C@@H]1O)O[C@@H]3COC(C)=O (stereo partly drawn) [LSD, lactonic sophorolipid diacetate]
percent cytotoxicity (LDH release) ([1]; HPAC cells cultured with 100 μg of sophorolipid natural mixture or derivative, FIG. 2): 26.2% | percent cytotoxicity (LDH release) ([1]; HPAC cells, 0.5 mg/mL): 40.3% | percent cytotoxicity (LDH release) ([1]; HPAC cells, 2.0 mg/mL): 3.4% | dose dependence of the cytotoxic response ([1]; HPAC cells, 0.5-2.0 mg/ml, in words): inversely proportional to dose

acidic sophorolipid [AS]
apoptosis (annexin) [2]: Dose dependant apoptosis could be observed | dose dependence of the cytotoxic response [3]: inversely proportional to dose
